Laboratory results published in patent publication US9883671B2, “Mixture of natural or nature-identical alcohols with improved effectiveness” (L'AIR LIQUIDE, SOCIETE ANONYME POUR L'ETUDE ET …, priority 2012, dated 2018).

Tested on: inoculation solution of test organisms: Staphylococcus aureus, Kocuria rhizophila, Enterobacter gergoviae, Escherichia coli, Klebsiella pneumoniae, Pseudomonas …
Experiment: Determination of the preserving effect of chemical preservatives in cosmetic formulations (Koko test), Carbopol gel
Format: cell-based, bacteria, yeast and moulds (mixed inoculum, ATCC strains)
Conditions: 0.1% by weight; inferred from Experiment 9 compared with Experiment 2
Protocol: Method A—Determination of the Preserving Effect of Chemical Preservatives in Cosmetic Formulations (Koko Test) The test described below is carried out to determine the preserving effect of chemical preservatives in cosmetic formulations. Using the described method, the aim is to test the effectiveness of chemical preservatives with regard to the pack preservation for cosmetic formulations. For this purpose, the preservatives to be tested are added in various concentrations to the unpreserved samples in different experimental batches. A continuous microbial burden is achieved by periodically inoculating the experimental batches. In parallel to the inoculation, streaks of the individual batches are in each case made immediately beforehand. Assessment is made by reference to the microbial growth of the streaks. […] In each case, 25 g of the cosmetic to be tested are weighed into wide-necked bottles with screw closure (LDPE). […] The preserving effect of the individual product concentrations is assessed in a semi-quantitative method by means of the growth of the individual streaks. […] The sample is well-preserved according to criterion A if it exists under the laboratory conditions given above for a period of six weeks without microbial attack of the sample batches, i.e. no microbial growth can be detected even after the sixth inoculation. […]

CCCCCCCCCCCO [Experiment 1-undecanol, 1-undecanol]
Preserving effect of the substance by itself, inferred: no effect
